Laboratory results reported in US10065941B2, “Aminotriazine derivative and pharmaceutical composition comprising the same” (Shionogi & Co., Ltd., priority 2013, dated 2018).

Molecular target: human P2X3 receptor (Homo sapiens (Human), UniProt P56373)
Assay: Evaluation of human P2X3 receptor inhibitory activity (Test Example 1)
Type: cell-based
Details: C6BU-1 cell transfected with human P2X3 receptor gene, FLIPR 384
Outline: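 FLIPR calcium read-out: signal taken as peak fluorescence after ATP addition divided by starting fluorescence, and IC50 calculated from it. Compound added 5 min before 150 nM ATP solution (pre-dispense stock) to Fluo-3-AM-loaded C6BU-1 cells stably transfected with human P2X3; HEPES buffer pH 7.5 with probenecid.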

Sequence of human P2X3 receptor (P56373 whole entry): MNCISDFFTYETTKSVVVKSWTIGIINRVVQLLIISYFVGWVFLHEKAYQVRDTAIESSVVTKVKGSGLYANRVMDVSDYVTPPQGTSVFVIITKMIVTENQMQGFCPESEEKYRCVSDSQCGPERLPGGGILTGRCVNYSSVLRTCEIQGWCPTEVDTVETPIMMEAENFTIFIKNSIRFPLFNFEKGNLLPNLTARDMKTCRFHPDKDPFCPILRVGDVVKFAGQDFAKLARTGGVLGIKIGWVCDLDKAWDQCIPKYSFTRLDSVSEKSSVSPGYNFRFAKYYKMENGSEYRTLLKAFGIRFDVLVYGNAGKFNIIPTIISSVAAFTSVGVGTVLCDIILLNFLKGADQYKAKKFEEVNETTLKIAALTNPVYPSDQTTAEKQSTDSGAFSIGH

SMILES | IC50
COC(=O)C(C)(C)Cn1c(=O)[nH]/c(=N\c2ccc(Oc3ccccn3)c(F)c2)n(Cc2ccc(Cl)cc2)c1=O [Compound I-227] | 31 nM
Cc1ccc(Cn2c(=O)n(C[C@H](C)C(=O)O)c(=O)[nH]/c2=N\c2ccc(Oc3ncccc3Cl)cc2)cc1 [Compound I-117] | 5 nM
O=C(O)CCn1c(=O)[nH]/c(=N\c2ccc(Oc3ccccn3)c(Cl)c2)n(Cc2ccc(Cl)cc2)c1=O [Compound R-297] | 8 nM
C[C@@H](C(=O)O)[C@H](C)n1c(=O)[nH]/c(=N\c2ccc(Oc3cc(Cl)ccn3)cc2)n(Cc2ccc(Cl)cc2)c1=O [Compound I-091] | 10 nM
CC(C)(Cn1c(=O)[nH]/c(=N\c2ccc(Oc3ncccn3)cc2)n(Cc2ccc(Cl)cc2)c1=O)C(=O)O [Compound R-060] | 16 nM
CC1(C)OC[C@H](Cn2c(=O)[nH]/c(=N\c3ccc(Oc4ccccn4)cc3)n(Cc3ccc(Cl)cc3)c2=O)O1 [Compound R-234] | 3 nM
CCOC(=O)[C@H]1C[C@H](n2c(=O)[nH]/c(=N\c3ccc(Oc4ncccc4F)cc3)n(Cc3ccc(Cl)cc3)c2=O)C1 [Compound I-061] | 62 nM
Cc1cc(/N=c2\[nH]c(=O)n(CC(C)(C)C(=O)O)c(=O)n2Cc2ccc(Cl)cc2)ccc1Oc1cnccn1 [Compound R-131] | 9 nM
Cc1nccc(Oc2ccc(/N=c3\[nH]c(=O)n(CC(C)(C)C(=O)O)c(=O)n3Cc3ccc(Cl)cc3)cc2)n1 [Compound R-045] | 14 nM
COC(=O)[C@H](C)[C@H](C)n1c(=O)[nH]/c(=N\c2ccc(Oc3ncc(C)s3)cc2)n(Cc2ccc(C)cc2)c1=O [Compound R-213] | 12 nM
CC(CO)(CO)Cn1c(=O)[nH]/c(=N\c2ccc(Oc3ccccn3)cc2)n(Cc2ccc(Cl)cc2)c1=O [Compound R-244] | 4 nM
COC(=O)[C@H](C)Cn1c(=O)[nH]/c(=N\c2ccc(Oc3ccccn3)cc2)n(Cc2ccc(Cl)cc2)c1=O [Compound I-131] | 8 nM
CCOC(=O)C1(Cn2c(=O)[nH]/c(=N\c3ccc(Oc4ncccc4F)cc3)n(Cc3ccc(Cl)cc3)c2=O)CC1 [Compound I-066] | 15 nM
COC(=O)[C@@H](C)Cn1c(=O)[nH]/c(=N\c2ccc(Oc3cccc(CO)n3)cc2)n(Cc2ccc(Cl)cc2)c1=O [Compound I-245] | 14 nM
C[C@@H](Cn1c(=O)[nH]/c(=N\c2ccc(N3CCCCC3)c(F)c2)n(Cc2ccc(Cl)cc2)c1=O)C(=O)O [Compound R-146] | 33 nM
COC(=O)C[C@@H](C)n1c(=O)[nH]/c(=N\c2ccc(Oc3ccccn3)cc2)n(Cc2ccc(C)cc2)c1=O [Compound I-186] | 5 nM
COC(=O)C[C@@H](C)n1c(=O)[nH]/c(=N\c2ccc(Oc3ncccc3F)cc2)n(Cc2ccc(Cl)cc2)c1=O [Compound I-161] | 10 nM
C[C@@H](Cn1c(=O)[nH]/c(=N\c2ccc(Oc3cncc(F)c3)c(F)c2)n(Cc2ccc(Cl)cc2)c1=O)C(=O)O [Compound R-117] | 6 nM
CC1(C)OCC(Cn2c(=O)[nH]/c(=N\c3ccc(Oc4ccccn4)cc3)n(Cc3ccc(Cl)cc3)c2=O)CO1 [Compound R-245] | 4 nM
Cc1ccc(Cn2c(=O)n([C@@H](C)[C@@H](C)C(=O)O)c(=O)[nH]/c2=N\c2ccc(Oc3ccccn3)cc2)cc1 [Compound I-195] | 7 nM
O=C(O)Cn1c(=O)[nH]/c(=N\c2ccc(Oc3ccccn3)cc2)n(Cc2ccc(Cl)cc2)c1=O [Compound R-239, 1-(4-chlorobenzyl)-3-(hydroxylcarbonylmethyl)-6-[4-(2-pyridyloxy)phenylimino]-1,3,5-triazinane-2,4-dione] | 399 nM
O=c1[nH]/c(=N\c2ccc(Oc3ccc(F)cn3)cc2)n(Cc2ccc(Cl)cc2)c(=O)n1CC1(CO)COC1 [Compound R-084] | 6 nM

SMILES | IC50
Cc1ccc(Cn2c(=O)n([C@@H](C)[C@@H](C)C(=O)O)c(=O)[nH]/c2=N\c2ccc(Oc3ccc(F)cn3)cc2)cc1 [Compound I-105] | 7 nM
CC(C)Oc1ccc(/N=c2\[nH]c(=O)n([C@H]3C[C@H](C(=O)O)C3)c(=O)n2Cc2ccc(Cl)cc2)cc1Cl [Compound R-021] | 15 nM
COC(=O)[C@H](C)[C@H](C)n1c(=O)[nH]/c(=N\c2ccc(Oc3cc(C)ccn3)cc2)n(Cc2ccc(Cl)cc2)c1=O [Compound I-107] | 31 nM
C[C@@H](Cn1c(=O)[nH]/c(=N\c2ccc(Oc3cnc(Cl)cn3)cc2)n(Cc2ccc(Cl)cc2)c1=O)C(=O)O [Compound R-014] | 5 nM
COC(=O)C(C)(C)Cn1c(=O)[nH]/c(=N\c2ccc(N3CCCCC3)c(C)c2)n(Cc2ccc(Cl)cc2)c1=O [Compound R-139] | 119 nM
COC(=O)[C@@H](C)Cn1c(=O)[nH]/c(=N\c2ccc(Oc3cccc(CI)n3)cc2)n(Cc2ccc(C)cc2)c1=O [Compound I-265] | 10 nM
CCOC(=O)CCCn1c(=O)[nH]/c(=N\c2ccc(Oc3ncccc3F)cc2)n(Cc2ccc(C)cc2)c1=O [Compound R-294] | 6 nM
CO[C@H](Cn1c(=O)[nH]/c(=N\c2ccc(Oc3ccccn3)cc2)n(Cc2ccc(Cl)cc2)c1=O)C(=O)O [Compound I-200] | 42 nM
COC(=O)[C@@H](C)Cn1c(=O)[nH]/c(=N\c2ccc(Oc3cccc(Cl)n3)cc2)n(Cc2ccc(C)cc2)c1=O [Compound I-115] | 6 nM
CNC(=O)Cn1c(=O)[nH]/c(=N\c2ccc(Oc3ccccn3)cc2)n(Cc2ccc(Cl)cc2)c1=O [Compound R-241] | 9 nM
Cc1cnc(Oc2ccc(/N=c3\[nH]c(=O)n(CC(C)(C)C(=O)O)c(=O)n3Cc3ccc(Cl)cc3)cc2)s1 [Compound R-153] | 8 nM
CCOC(=O)[C@H]1C[C@@H](n2c(=O)[nH]/c(=N\c3ccc(Oc4ccccn4)cc3)n(Cc3ccc(Cl)cc3)c2=O)C1 [Compound I-171] | 9 nM
C[C@@H](Cn1c(=O)[nH]/c(=N\c2ccc(Oc3ccc(CO)nc3)cc2)n(Cc2ccc(Cl)cc2)c1=O)C(=O)O [Compound R-155] | 10 nM
CCc1ccc(Oc2ccc(/N=c3\[nH]c(=O)n(C[C@H](C)C(=O)O)c(=O)n3Cc3ccc(Cl)cc3)cc2)nc1 [Compound I-258] | 4 nM
CCc1[nH]c2ccc(/N=c3\[nH]c(=O)n(CC(C)(C)C(=O)O)c(=O)n3Cc3ccc(Cl)cc3)cc2c1C [Compound R-075] | 13 nM
COC(=O)[C@@H](C)Cn1c(=O)[nH]/c(=N\c2ccc(Oc3cc(Cl)ccn3)cc2)n(Cc2ccc(Cl)cc2)c1=O [Compound I-060] | 24 nM
COC(=O)[C@@H](C)Cn1c(=O)[nH]/c(=N\c2ccc(Oc3ncns3)cc2)n(Cc2ccc(Cl)cc2)c1=O [Compound R-134] | 5 nM
COC(=O)CCn1c(=O)[nH]/c(=N\c2ccc(Oc3ccc(Cl)cn3)cc2)n(Cc2ccc(Cl)cc2)c1=O [Compound R-287] | 6 nM
COC(=O)CCn1c(=O)[nH]/c(=N\c2ccc(Oc3ccc(C(C)=O)cn3)cc2)n(Cc2ccc(Cl)cc2)c1=O [Compound R-303] | 3 nM
CCc1[nH]c2ccc(/N=c3\[nH]c(=O)n(C[C@H](C)C(=O)O)c(=O)n3Cc3ccc(Cl)cc3)cc2c1C [Compound R-074] | 13 nM
COC(=O)C(C)(C)Cn1c(=O)[nH]/c(=N\c2ccc(Oc3cncc(C)c3)cc2)n(Cc2ccc(Cl)cc2)c1=O [Compound R-193] | 11 nM
C[C@@H](Cn1c(=O)[nH]/c(=N\c2ccc(Oc3ccc(F)cn3)cc2)n(Cc2ccc(F)cc2F)c1=O)C(=O)O [Compound I-028] | 20 nM
